Legend:
Experiment in all cases: scanMax kinase panel (Eurofins)
Type in all cases: binding
[1] = target: T1, ABL1(H396P)-phosphorylated (Homo sapiens, UniProt P00519, H396P); conditions: read-out: % control
T1 construct: purchased Eurofins
Experimental: (§1) The following assay method was performed to evaluate the inhibitory activities of a compound according to the present invention with respect to various enzymes. […] The compound was applied to the enzyme at a concentration of 1 μM, dissolved in DMSO, and the % control was determined according to Equation 1 below.
(§2) Here, the positive control refers to a compound corresponding to 0% control, and the negative control refers to a compound corresponding to 100% control.

ABL1-phosphorylated = target: T2, ABL1-phosphorylated (Homo sapiens, UniProt P00519); conditions: read-out: % control
T2 construct: purchased Eurofins
Experimental: as §1, §2

ARK5 = target: T3, ARK5 (Homo sapiens, UniProt O60285); conditions: ARK5, 1 μM; read-out: % control
T3 construct: purchased Eurofins
Experimental: as §1, §2

CDK3 = target: T4, CDK3 (Homo sapiens, UniProt Q00526); conditions: CDK3, 1 μM; read-out: % control
T4 construct: purchased Eurofins
T4 sequence (Q00526 whole entry): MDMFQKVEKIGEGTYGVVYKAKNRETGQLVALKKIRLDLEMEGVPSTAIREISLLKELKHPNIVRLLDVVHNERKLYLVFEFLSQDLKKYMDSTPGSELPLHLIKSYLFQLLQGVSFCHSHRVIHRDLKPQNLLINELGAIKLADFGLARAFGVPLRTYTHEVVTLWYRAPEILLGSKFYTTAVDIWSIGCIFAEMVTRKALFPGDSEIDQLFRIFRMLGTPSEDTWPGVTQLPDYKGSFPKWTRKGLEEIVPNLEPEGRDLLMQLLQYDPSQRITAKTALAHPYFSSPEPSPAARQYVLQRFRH
Experimental: as §1, §2

DYRK1B = target: T5, DYRK1B (Homo sapiens, UniProt Q9Y463); conditions: read-out: % control
T5 construct: purchased Eurofins scanMax® kinase panel
T5 sequence (Q9Y463 whole entry): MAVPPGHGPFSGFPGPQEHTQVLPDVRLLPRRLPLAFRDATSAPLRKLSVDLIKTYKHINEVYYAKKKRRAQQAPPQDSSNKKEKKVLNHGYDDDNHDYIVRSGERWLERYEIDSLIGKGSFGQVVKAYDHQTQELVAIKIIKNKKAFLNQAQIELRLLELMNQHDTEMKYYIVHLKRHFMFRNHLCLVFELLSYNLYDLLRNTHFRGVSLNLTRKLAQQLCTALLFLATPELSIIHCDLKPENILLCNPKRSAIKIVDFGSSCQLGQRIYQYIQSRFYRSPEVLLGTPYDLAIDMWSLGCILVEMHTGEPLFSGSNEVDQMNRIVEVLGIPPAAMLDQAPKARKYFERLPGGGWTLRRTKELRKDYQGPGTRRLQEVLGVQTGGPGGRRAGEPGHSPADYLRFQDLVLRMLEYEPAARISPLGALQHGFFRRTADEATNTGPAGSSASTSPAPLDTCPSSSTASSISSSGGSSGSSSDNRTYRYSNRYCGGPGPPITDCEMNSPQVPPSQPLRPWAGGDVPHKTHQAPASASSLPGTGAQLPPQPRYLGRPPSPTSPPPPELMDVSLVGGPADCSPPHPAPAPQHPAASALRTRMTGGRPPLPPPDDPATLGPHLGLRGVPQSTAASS
Experimental: as §1, §2

DYRK2 = target: T6, DYRK2 (Homo sapiens, UniProt Q92630); conditions: DYRK2, 1 μM; read-out: % control
T6 construct: purchased Eurofins scanMax® kinase panel
T6 sequence (Q92630 whole entry): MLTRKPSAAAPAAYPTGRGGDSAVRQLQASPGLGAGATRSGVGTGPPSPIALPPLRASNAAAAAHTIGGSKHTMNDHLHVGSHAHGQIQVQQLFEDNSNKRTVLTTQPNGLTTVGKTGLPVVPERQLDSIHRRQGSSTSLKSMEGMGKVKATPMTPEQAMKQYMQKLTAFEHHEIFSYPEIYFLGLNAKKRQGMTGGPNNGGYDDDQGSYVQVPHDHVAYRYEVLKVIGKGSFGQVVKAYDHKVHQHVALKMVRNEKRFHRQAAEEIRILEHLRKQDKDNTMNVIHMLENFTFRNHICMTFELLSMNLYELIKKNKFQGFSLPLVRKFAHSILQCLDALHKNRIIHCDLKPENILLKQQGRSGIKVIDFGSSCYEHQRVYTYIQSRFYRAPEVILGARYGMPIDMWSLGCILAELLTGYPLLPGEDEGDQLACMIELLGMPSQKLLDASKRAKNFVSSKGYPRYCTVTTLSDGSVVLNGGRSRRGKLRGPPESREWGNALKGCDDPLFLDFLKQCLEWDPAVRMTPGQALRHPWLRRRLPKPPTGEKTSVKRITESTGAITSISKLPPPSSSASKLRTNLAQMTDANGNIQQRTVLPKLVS
Experimental: as §1, §2

HASPIN = target: T7, HASPIN (Homo sapiens, UniProt Q8TF76); conditions: read-out: % control
T7 construct: purchased Eurofins scanMax® kinase panel
T7 sequence (Q8TF76 whole entry): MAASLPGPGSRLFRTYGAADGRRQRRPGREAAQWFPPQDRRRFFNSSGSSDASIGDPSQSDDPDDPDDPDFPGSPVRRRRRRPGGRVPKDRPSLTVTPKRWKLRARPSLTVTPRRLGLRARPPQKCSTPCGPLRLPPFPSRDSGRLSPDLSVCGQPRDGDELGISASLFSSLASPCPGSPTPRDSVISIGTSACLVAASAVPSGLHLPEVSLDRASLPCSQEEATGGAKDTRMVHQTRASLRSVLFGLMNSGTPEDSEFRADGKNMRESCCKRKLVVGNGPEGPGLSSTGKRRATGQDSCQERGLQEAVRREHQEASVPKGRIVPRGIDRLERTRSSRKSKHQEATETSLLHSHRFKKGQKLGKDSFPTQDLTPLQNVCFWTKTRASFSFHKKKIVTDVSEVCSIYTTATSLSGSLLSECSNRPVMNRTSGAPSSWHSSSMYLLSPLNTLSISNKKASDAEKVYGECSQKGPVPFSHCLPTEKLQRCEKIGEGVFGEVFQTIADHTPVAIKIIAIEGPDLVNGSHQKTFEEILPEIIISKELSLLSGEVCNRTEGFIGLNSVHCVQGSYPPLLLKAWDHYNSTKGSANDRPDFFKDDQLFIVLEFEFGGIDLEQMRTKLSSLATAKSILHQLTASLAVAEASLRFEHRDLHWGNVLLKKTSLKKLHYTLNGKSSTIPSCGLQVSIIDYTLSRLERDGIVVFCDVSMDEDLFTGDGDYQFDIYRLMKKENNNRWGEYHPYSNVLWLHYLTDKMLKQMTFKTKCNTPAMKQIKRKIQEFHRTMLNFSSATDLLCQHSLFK
Experimental: as §1, §2

HIPK1 = target: T8, HIPK1 (Homo sapiens, UniProt Q86Z02); conditions: HIPK1, 1 μM; read-out: % control
T8 construct: purchased Eurofins scanMax® kinase panel
Experimental: as §1, §2

HIPK3 = target: T9, HIPK3 (Homo sapiens, UniProt Q9H422); conditions: HIPK3, 1 μM; read-out: % control
T9 construct: purchased Eurofins
Experimental: as §1, §2

IRAK4 = target: T10, IRAK4 (Homo sapiens, UniProt Q9NWZ3); conditions: IRAK4, 1 μM; read-out: % control
T10 construct: purchased Eurofins
T10 sequence (Q9NWZ3 whole entry): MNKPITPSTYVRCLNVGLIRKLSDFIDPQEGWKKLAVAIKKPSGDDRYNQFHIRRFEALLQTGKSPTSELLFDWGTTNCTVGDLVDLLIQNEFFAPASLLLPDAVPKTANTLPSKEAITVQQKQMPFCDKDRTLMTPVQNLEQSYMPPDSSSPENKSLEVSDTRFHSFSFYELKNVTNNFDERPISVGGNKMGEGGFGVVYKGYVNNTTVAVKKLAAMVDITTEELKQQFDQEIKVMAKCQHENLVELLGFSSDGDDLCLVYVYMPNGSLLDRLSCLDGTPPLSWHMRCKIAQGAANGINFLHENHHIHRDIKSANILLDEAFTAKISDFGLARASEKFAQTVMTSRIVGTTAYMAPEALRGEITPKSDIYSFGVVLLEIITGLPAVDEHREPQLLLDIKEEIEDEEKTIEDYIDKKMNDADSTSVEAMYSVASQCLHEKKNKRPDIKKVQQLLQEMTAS
Experimental: as §1, §2

KIT(A829P) = target: T11, KIT(A829P) (Homo sapiens, UniProt P10721, A829P); conditions: read-out: % control
T11 construct: purchased Eurofins
T11 sequence (P10721 26-976 A829P): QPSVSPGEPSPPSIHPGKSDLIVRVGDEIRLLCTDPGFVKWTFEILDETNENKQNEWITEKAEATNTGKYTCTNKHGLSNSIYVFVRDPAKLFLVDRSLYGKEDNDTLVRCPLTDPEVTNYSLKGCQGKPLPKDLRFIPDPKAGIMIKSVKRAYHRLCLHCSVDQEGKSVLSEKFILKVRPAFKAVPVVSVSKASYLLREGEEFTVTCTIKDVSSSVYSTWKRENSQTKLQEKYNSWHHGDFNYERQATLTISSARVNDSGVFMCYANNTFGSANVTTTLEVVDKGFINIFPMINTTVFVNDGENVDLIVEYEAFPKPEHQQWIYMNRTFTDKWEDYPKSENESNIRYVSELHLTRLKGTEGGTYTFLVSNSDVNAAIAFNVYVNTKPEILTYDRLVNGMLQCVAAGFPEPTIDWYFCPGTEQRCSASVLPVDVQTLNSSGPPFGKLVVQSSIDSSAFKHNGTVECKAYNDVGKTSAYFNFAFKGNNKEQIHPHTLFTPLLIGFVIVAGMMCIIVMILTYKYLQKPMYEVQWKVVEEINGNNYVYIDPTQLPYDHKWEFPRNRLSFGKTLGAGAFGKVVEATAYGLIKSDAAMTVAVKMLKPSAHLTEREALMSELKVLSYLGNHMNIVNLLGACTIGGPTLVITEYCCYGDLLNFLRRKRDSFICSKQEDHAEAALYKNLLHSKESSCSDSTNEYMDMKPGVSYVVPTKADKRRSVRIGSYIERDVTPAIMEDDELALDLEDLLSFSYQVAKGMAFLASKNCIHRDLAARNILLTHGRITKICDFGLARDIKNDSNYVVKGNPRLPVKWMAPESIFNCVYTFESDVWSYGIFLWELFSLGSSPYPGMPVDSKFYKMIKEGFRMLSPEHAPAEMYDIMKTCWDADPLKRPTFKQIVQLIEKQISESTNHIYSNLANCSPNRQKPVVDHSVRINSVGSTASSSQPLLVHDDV
Experimental: as §1, §2

MAP3K1 = target: T12, MAP3K1 (Homo sapiens, UniProt Q13233); conditions: MAP3K1, 1 μM; read-out: % control
T12 construct: purchased Eurofins
Experimental: as §1, §2

MAP3K15 = target: T13, MAP3K15 (Homo sapiens, UniProt Q6ZN16); conditions: MAP3K15, 1 μM; read-out: % control
T13 construct: purchased Eurofins
T13 sequence (Q6ZN16 whole entry): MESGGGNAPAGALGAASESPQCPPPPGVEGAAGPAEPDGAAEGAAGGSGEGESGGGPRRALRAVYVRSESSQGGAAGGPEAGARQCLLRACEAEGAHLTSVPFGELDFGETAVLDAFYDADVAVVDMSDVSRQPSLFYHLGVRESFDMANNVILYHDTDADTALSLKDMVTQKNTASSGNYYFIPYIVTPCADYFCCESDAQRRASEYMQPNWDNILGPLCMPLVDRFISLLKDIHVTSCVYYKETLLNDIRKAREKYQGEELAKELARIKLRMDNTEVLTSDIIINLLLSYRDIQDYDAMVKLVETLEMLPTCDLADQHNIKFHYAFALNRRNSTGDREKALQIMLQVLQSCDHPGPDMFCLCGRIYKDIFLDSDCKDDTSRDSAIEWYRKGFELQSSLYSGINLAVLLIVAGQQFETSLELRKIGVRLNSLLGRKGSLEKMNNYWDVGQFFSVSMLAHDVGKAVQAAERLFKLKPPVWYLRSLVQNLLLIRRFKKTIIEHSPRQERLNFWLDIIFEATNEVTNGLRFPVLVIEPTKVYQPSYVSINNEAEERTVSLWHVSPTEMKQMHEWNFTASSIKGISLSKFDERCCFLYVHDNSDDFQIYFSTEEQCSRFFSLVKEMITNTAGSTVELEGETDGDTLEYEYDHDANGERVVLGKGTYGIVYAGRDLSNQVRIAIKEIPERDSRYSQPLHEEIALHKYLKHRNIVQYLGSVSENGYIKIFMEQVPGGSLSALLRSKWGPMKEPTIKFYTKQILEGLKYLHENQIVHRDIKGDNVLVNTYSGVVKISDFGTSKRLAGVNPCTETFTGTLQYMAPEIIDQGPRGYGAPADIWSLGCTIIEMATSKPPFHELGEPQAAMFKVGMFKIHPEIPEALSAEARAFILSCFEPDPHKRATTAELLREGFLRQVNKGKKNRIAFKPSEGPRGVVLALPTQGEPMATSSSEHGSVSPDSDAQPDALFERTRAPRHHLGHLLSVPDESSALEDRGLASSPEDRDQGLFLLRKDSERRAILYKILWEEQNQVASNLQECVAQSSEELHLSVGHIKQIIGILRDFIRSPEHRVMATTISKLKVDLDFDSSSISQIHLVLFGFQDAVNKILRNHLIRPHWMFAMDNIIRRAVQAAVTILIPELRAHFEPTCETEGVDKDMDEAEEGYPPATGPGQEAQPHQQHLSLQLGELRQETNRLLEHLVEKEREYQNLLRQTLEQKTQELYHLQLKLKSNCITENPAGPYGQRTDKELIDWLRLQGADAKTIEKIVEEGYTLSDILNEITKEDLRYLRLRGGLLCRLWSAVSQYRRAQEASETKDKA
Experimental: as §1, §2

MAP3K2 = target: T14, MAP3K2 (Homo sapiens, UniProt Q9Y2U5); conditions: MAP3K2, 1 μM; read-out: % control
T14 construct: purchased Eurofins
Experimental: as §1, §2

MEK4 = target: T15, MEK4 (Homo sapiens, UniProt P45985); conditions: MEK4, 1 μM; read-out: % control
T15 construct: purchased Eurofins
Experimental: as §1, §2

RET(V804L) = target: T16, RET(V804L) (Homo sapiens, UniProt P07949, V804L); conditions: read-out: % control
T16 construct: purchased Eurofins scanMax kinase panel
Experimental: as §1, §2

RET(V804M) = target: T17, RET(V804M) (Homo sapiens, UniProt P07949, V804M); conditions: read-out: % control
T17 construct: purchased Eurofins scanMax kinase panel
Experimental: as §1, §2

Measured: remaining binding at 1 µM

COc1ccc2nc(-c3n[nH]c4ccc(C(=O)N[C@H]5CC[C@H](N)C5)cc34)[nH]c2c1 [Example 32, N-((1S,3S)-3-aminocyclopentyl)-3-(6-methoxy-1H-benzo[d]imidazol-2-yl)-1H-indazole-5-carboxamide]
< 10%: all assays above

— patent publication US20260234129A1, “NOVEL IMIDAZOLE DERIVATIVE AND USE THEREOF” (PELEMED CO., LTD., priority 2023, published 2026)
